In patent publication US20010052137A1, “Axin domain-like polypeptide inhibitors of glycogen synthase kinase 3 beta activity and activators of wnt signaling” (Trustees of the University of Pennsylvania, priority 2000, published 2001):
Ends that are not written are not given here.

Columns and labels:
[1] = system: LEF-1 dependent transcription (wnt signaling); assay: LEF-luciferase reporter of wnt signaling in 293T cells; type: cell-based; conditions: at 37°
Experimental: LEF-1 (also designated tcf) is a DNA-binding protein that also binds with beta-catenin. The beta-catenin/LEF-1 complex is known to activate transcription of wnt target genes. A genetic construct was made which comprised this LEF-1-binding promoter operably linked with a luciferase gene, for use as a reporter of wnt signaling.
Single plasmids encoding individual GID fragments were transfected into 293T cells, together with the LEF-luciferase reporter, and luciferase activity was measured after 24 hours. GID fragments induced up to 100- to 250-fold activation of LEF-luciferase (normalized to activity from the mutated LEF-reporter control, which was activated less than 2-fold).

GSK-3 beta [2] = assay: In ovo tau phosphorylation assay: GSK-3 beta and Xaxin constructs co-expressed in Xenopus oocytes; type: cell-based; conditions: construct co-expressed with GSK-3 beta in Xenopus oocytes; tau microinjected; PHF-1 immunoblot
Experimental: Stage VI Xenopus oocytes were isolated by collagenase treatment (Smith et al., 1994, Meth. Cell Biol. 36:45-58) and were injected with mRNA prepared by in vitro transcription (mMessage Machine™; Ambion, Austin, Tex.). 10 nanoliters of mRNA (containing 1-2 nanograms per nanoliter) was injected for each construct (unless otherwise specified), and the injected oocytes were incubated for 16 hours at 18° C. To analyze the effects of Xaxin constructs on dorsal-ventral pattern formation, Xenopus embryos were injected with 10 nanoliters of mRNA (0.1-0.2 nanogram per nanoliter) into one dorsal or ventral cell of a 4 cell embryo and dorsal axes were assessed at the tadpole stage. For Xaxin co-immunoprecipitation, fertilized eggs were injected with 10 nanoliters of Xaxin tagged with Myc, with hemagglutinin, or with both Myc and hemagglutinin (1 nanogram per nanoliter) and harvested at the blastula stage (stage 8).
In ovo phosphorylation of tau by GSK-3 beta was performed by microinjection of tau protein into oocytes expressing GSK-3 beta and Xaxin constructs. After 90 minutes, oocytes were homogenized and tau phosphorylation was analyzed in western blots using phospho-specific antibodies as described (Hedgepeth et al., 1997, Develop. Biol. 185:82-91). In vitro assays for GSK-3 beta activity were performed as described (Klein et al., 1996, Proc. Natl. Acad. Sci. USA 93:8455-8459). Recombinant GID-2/his protein (described below) was purified by affinity chromatography and added to in vitro assays at selected concentrations. […]
GSK-3 beta was expressed in oocytes together with Myc-tagged full length Xaxin or with the amino-terminal (amino acid residues 63-288), GID-1 (amino acid residues 277-545), or carboxyl-terminal (amino acid residues 429-713) fragments of Xaxin, as depicted in FIG. 1A. Purified tau protein was then microinjected into the oocytes, and phosphorylation of tau was measured by immunoblotting using antibody PHF-1 or with antibodies that detect all (i.e. phosphorylated and non-phosphorylated) forms of tau. […]

GSK-3 beta [3] = assay: Co-immunoprecipitation of GSK-3 beta with Myc-tagged Xaxin constructs in Xenopus oocytes; type: binding; conditions: Myc-tagged construct co-expressed with GSK-3 beta in Xenopus oocytes; anti-Myc IP, anti-GSK-3 beta blot

Substance | reduction of activity in LEF-luciferase assay compared to wild-type [1] | GSK-3 beta-mediated tau phosphorylation (GSK-3 beta activity) (GSK-3 beta [2]) | binding with GSK-3 beta (co-immunoprecipitation) (GSK-3 beta [3])
GID5-6FY: GID mutant in which phenylalanine-388 is replaced with a tyrosine residue (DIHVDPEKYAAELISRLEGVLRDRE) | approximately 10 fold |  | 
GID-3: Myc-tagged fragment, Xaxin amino acid residues 320-375 (DSEQQSMSSDADTMSLTDSSVDGIPPYRLRKHYRREMQESANANGRGPLPHIPRTY; also: Myc-tagged fragment) |  | no effect | did not bind
GID-5: Myc-tagged fragment, Xaxin amino acid residues 380-429 (DIHVDPEKFAAELISRLEGVLRDREAEQKLEERLKRVRAEEEGDDGDVSS; also: Myc-tagged fragment) |  | inhibited | bound
GID-6: Myc-tagged fragment, Xaxin amino acid residues 380-404 (SEQ ID NO: 1) (DIHVDPEKFAAELISRLEGVLRDRE; also: Myc tag) |  | inhibited | bound
